Consider 67 molecules from the Bradley open melting point set (2014).

Usually melting point stands for the temperature, or range, at which the solid turns liquid.

SMILES strings stand for the structures.

The molecule `O=C(O)CCP(=O)(O)O` [3-phosphonopropionic acid] registered a melting point of 164 °C.

As to `CCBr` [bromoethane], the melting point is -119 °C.

`C=CCC1(C2C=CCCC2)C(=O)NC(=S)NC1=O` (configuration not stated) [thialbarbital] came in with a melting point of 148 °C.

`CN(C)c1ccc(C=O)cc1` [4-(Dimethylamino)benzaldehyde] displayed a melting point of 74 °C.

`O=S(=O)(Cl)c1ccc(Cl)cc1` [4-chlorobenzenesulfonyl chloride]: the melting point was 52 °C.

In the case of `COC(=O)c1ccc(N)cc1` [methyl 4-aminobenzoate], the melting point is 112 °C.

For the molecule `Cc1ccc(C(C)C)c(O)c1` [thymol], the melting point stood at 51 °C.

With `Clc1ccc(-c2ccccc2)cc1` [PCB-3], the melting point amounted to 78 °C.

As for `O=C(Oc1ccc2ccccc2c1)c1ccccc1` [2-naphthyl benzoate], the melting point was 107 °C.

Molecule `Oc1ccc(Cl)c(Cl)c1` [3,4-dichlorophenol] yielded a melting point of 67 °C.

Consider `Nc1ncccc1OCc1ccccc1` [2-amino-3-benzyloxypyridine], for which the melting point came to 93 °C.

With `COc1cc(Cc2cnc(N)nc2N)cc(OC)c1OC` [Trimethoprim], the melting point was determined as 201 °C.

Regarding `Cc1cccc(-c2ccccc2)c1` [3-methylbiphenyl], the melting point worked out at 5 °C.

Molecule `CCC(C)C1(CC)C(=O)NC(=O)NC1=O` (configuration not stated) [Butabarbital] registered a melting point of 166 °C.

Regarding `N[C@@H](CCC(=O)N[C@@H](CS)C(=O)NCC(=O)O)C(=O)O` [Glutathione], the melting point was found to be 194 °C.

Molecule `O=CCCc1ccccc1` [3-phenylpropionaldehyde] had a melting point of -42 °C.

`CC(=O)Oc1cccc(C(=O)O)c1` [m-acetoxy_benzoic_acid]: the melting point stood at 133 °C.

For the molecule `O=Cc1cccc(Cl)c1` [m-chlorobenzaldehyde], the melting point was 18 °C.

The molecule `COC(=O)c1cccc(Br)c1` [methyl_3-bromobenzoate] returned a melting point of 33 °C.

As to `N=C(N)NCCC[C@@H](N)C(=O)O` [D-arginine], the melting point amounted to 235 °C.

Turning to `Cc1ccc(S(=O)(=O)OC[C@@H]2OC(C)(C)O[C@H]2COS(=O)(=O)c2ccc(C)cc2)cc1` [1,4-di-o-tosyl-2,3-o-isopropylidene-l-threitol], the melting point stood at 90 °C.

`CCCCCCCCCCCCCCC` [pentadecane]: the melting point amounted to 10 °C.

Regarding `Nc1cc2ccccc2cc1N` [Naphthalene-2,3-diamine], the melting point worked out at 190 °C.

`NC1=C(c2ccccc2)C(=O)c2ccccc21` [3-amino-2-phenylindenone] showed a melting point of 271 °C.

With `Cc1ccc(C)c(O)c1` [2,5-dimethylphenol], the melting point was 76 °C.

`CCCCCCCCN` [octylamine] displayed a melting point of 0 °C.

For the molecule `C[SiH](C)Cl` [chlorodimethylsilane], the melting point is -111 °C.

For `O=C(NC(Cc1ccccc1)C(=O)O)OCc1ccccc1[N+](=O)[O-]` (configuration not stated) [N-{[(2-nitrobenzyl)oxy]carbonyl}phenylalanine], the melting point came out at 141 °C.

As for `C=C` [ethylene], the melting point was -169 °C.

`O=C(O)[C@H](O)[C@@H](O)C(=O)O` [(2R,3R)-2,3-Dihydroxysuccinic acid] came in with a melting point of 171 °C.

`O=C(O)[C@@H]1CCCN1` [L-Proline] gave a melting point of 228 °C.

`O=C(Oc1ccccc1)c1ccccc1` [phenyl_benzoate] showed a melting point of 70 °C.

`CCCCCCCC/C=C\CCCCCCCCCCCC(N)=O` [(13Z)-Docos-13-enamide] came in with a melting point of 79 °C.

Take `NC(=O)c1cnccn1` [Pyrazinamide]: the melting point came to 189 °C.

Turning to `O=C1OC(=O)C23Cc4ccccc4CC12Cc1ccccc1C3` (configuration not stated), the melting point stood at 269 °C.

As to `O=C1C2CC3=C(CC=CC3)CC2C(=O)C2CC3=C(CC=CC3)CC12` (configuration not stated), the melting point was 227 °C.

Molecule `CC(C)=CCC/C(C)=C/CO` [geraniol] yielded a melting point of -15 °C.

As to `NC=O` [formamide], the melting point stood at 2 °C.

For the molecule `Nc1ccccc1C(=O)O` [anthranilic acid], the melting point turned out to be 147 °C.

The molecule `Brc1ccccc1` [Bromobenzene] returned a melting point of -31 °C.

Molecule `CCc1cc(Br)ccc1NC(C)=O` [4'-bromo-2'-ethylacetanilide] registered a melting point of 143 °C.

In turn, `CCCC(C)S` (configuration not stated) [2-pentanethiol] came in with a melting point of -112 °C.

For `Cc1cc(C=O)cc(C)c1O` [4-hydroxy-3,5-dimethylbenzaldehyde], the melting point was 114 °C.

Consider `C[C@@H]1CNC[C@H](C)O1` [cis-2,6-dimethylmorpholine], for which the melting point is -85 °C.

For the molecule `COC(=O)c1ccccc1NC(=O)c1ccccc1` [methyl 2-(benzoylamino)benzoate], the melting point was determined as 99 °C.

In turn, `COc1cc2nc(N3CCN(C(=O)C4COc5ccccc5O4)CC3)nc(N)c2cc1OC` (configuration not stated) [Doxazosin] showed a melting point of 290 °C.

In the case of `CCOC(=O)c1ccccc1` [ethyl benzoate], the melting point is -34 °C.

With `N#Cc1ccc2c(c1)N(CCCN1CCC(O)CC1)c1ccccc1S2` [perciyazine], the melting point was 116 °C.

For the molecule `CCOc1ccc(N)cc1` [p-phenetidine], the melting point amounted to 3 °C.

In the case of `C[C@]12CC[C@@H]3c4ccc(O)cc4CC[C@H]3[C@@H]1CC[C@@H]2O` [Estradiol], the melting point was found to be 176 °C.

`CCCCCCCCCCCC(=O)O` [Lauric acid] showed a melting point of 45 °C.

For `O=C(O)c1cccc(Br)c1` [m-bromobenzoic_acid], the melting point was found to be 157 °C.

`Cc1ccc([N+](=O)[O-])cc1` [4-nitrotoluene] returned a melting point of 53 °C.

`Cc1ccc(C)c(C)c1` [1,2,4-trimethylbenzene] had a melting point of -44 °C.

Consider `O=C4\C=C3/[C@]([C@H]2CC[C@]1([C@@H](CC[C@@]1(O)C)[C@@H]2CC3)C)(C)CC4` [methyltestosterone], for which the melting point amounted to 163 °C.

Turning to `Cc1cccc(-c2ccccc2)c1` [1-methyl-3-phenylbenzene], the melting point was 5 °C.

Take `O=C(O)c1cc([N+](=O)[O-])ccc1O` [5-nitrosalicylic acid]: the melting point worked out at 232 °C.

In turn, `Oc1ccc(O)cc1` [hydroquinone] had a melting point of 175 °C.

In turn, `COc1ccc(/C=C(\Oc2ccc(Cl)cc2)c2nc3ccccc3s2)cc1` gave a melting point of 138 °C.

The molecule `NC(=O)c1ccccc1O` [salicylamide] displayed a melting point of 140 °C.

Molecule `COc1ccc(C2=CCC3(C)C(CCC4C3CCC3(C)C(OC(C)=O)CCC43)C2)cc1` (configuration not stated) [3-(4-methoxyphenyl)androst-2-en-17-yl acetate] returned a melting point of 179 °C.

`CCCN(CCC)S(=O)(=O)c1ccc(C(=O)O)cc1` [probenecid] displayed a melting point of 198 °C.

In turn, `O=c1cc[nH]c(=O)[nH]1` [uracil] displayed a melting point of 330 °C.

Molecule `O=C(O)Cc1ccc([N+](=O)[O-])cc1` [4-nitrophenylacetic acid] displayed a melting point of 154 °C.

`O=C4\C=C3/[C@]([C@H]2CC[C@]1([C@@H](CC[C@@]1(O)C)[C@@H]2CC3)C)(C)CC4` [17-methyltestosterone] displayed a melting point of 164 °C.

Consider `CC(=O)OC1COC(C#N)C(OC(C)=O)C1OC(C)=O` (configuration not stated), for which the melting point is 134 °C.

For `CC(C)c1ccc(Br)cc1` [p-bromocumene], the melting point is -22 °C.
